Laboratory results taken from patent publication US6531496B1 (Bayer Aktiengesellschaft, priority 1999, dated 2003).

Experiments:
[1] = test system: Plasmopara viticola; assay: Plasmopara test (grapevine)/protective; assay type: in vivo; conditions: 144 h, protective, evaluated 6 days after inoculation, read-out: Efficacy in %
Method: Plasmopara Test (Grapevine)/Protective Solvent: 47 parts by weight of acetone Emulsifier: 3 parts by weight of alkylaryl polyglycol ether To prepare a suitable active compound preparation, 1 part by weight of active compound is mixed with the stated amounts of solvent and emulsifier, and the concentrate is diluted with water to the desired concentration. To test for protective activity, young plants are sprayed with the active compound preparation at the application rate stated. After the spray coating has dried on, the plants are inoculated with an aqueous spore suspension of Plasmopara viticola and then remain for 1 day in an incubation cabinet at approx. 20° C. and a relative atmospheric humidity of 100%. […] The plants are then moistened and placed in an incubation cabinet for 1 day.

[2] = test system: Plutella; assay: Plutella test/synthetic feed; assay type: in vivo; conditions: active compound concentration 0.1%, after 7 days
Method: Plutella Test/Synthetic Feed Solvent: 100 parts by weight of acetone […] 1900 parts by weight of methanol To prepare a suitable active compound preparation, 1 part by weight of active compound is mixed with the stated amount of solvent and the concentrate is diluted with methanol to the desired concentration. A stated amount of active compound preparation of the desired concentration is pipetted onto a standardized amount of synthetic feed. After the methanol has evaporated, the lid of a film box, populated with approx. 100 Plutella eggs, is placed over each cavity. The freshly hatched larvae crawl onto the treated synthetic feed. After the desired time, the destruction is determined in %. 100% means that all the animals have been killed; 0% means that none of the animals have been killed.

Nc1ccc(OC2=NS(=O)(=O)CS2)c(Cl)c1Cl [Example 14]
pest or weed control at 250 g/ha [1]: ≥ 90%
Destruction in % after 7^d [2]: 95%
